Structures are written as SMILES. Like-named read-outs stand apart in the source and are kept apart here.

Data set [1] addresses H5N1 virus neuraminidase (Influenza A virus, UniProt Q9Q0U7). Briefly: biochemical. The conditions noted are these: for inhibition at 6.25 µM / inhibition at 12.5 µM / inhibition at 25 µM / inhibition at 50 µM / inhibition at 100 µM / inhibition at 200 µM / inhibition at 400 µM: read-out: The neuraminidase inhibitory rate (%).
For data set [2], the system named is A/Vietnam/1203/2004(H5N1) and A/Goose/Qinghai/59/05(H5N1) pseudotyped viral entry. To be noted: read-out: IC50 against pseudotyped viral entry; cited from earlier work.
In data set [3] the test system is A/Duck/Guangdong/212/2004 (H5N1) virus. Briefly: microbe, parasite or virus in culture. Type of data set: cell-based, H5N1 avian influenza virus.
Data set [4] in a line: in vitro. The conditions noted are these: dog.
The subject of data set [5] is MDCK cells. To be noted: dog.
Data set [6] relates to H5N1 virus. Briefly: microbe, parasite or virus in culture. Type of data set: cell-based, H5N1 avian influenza virus. To be noted: Influenza A virus.
For data set [7], the system named is wild-type A/Thailand/kan353/2004 (H5N1) pseudo-typed virus. Briefly: microbe, parasite or virus in culture. Type of data set: cell-based, H5N1 pseudovirus. To be noted: Influenza A virus, H5N1, MDCK; for inhibition at 1.56 µM / inhibition at 3.13 µM / inhibition at 6.25 µM / inhibition at 12.5 µM / inhibition at 25 µM / inhibition at 50 µM / inhibition at 100 µM / inhibition at 200 µM: 48 h, read-out: inhibitory rates against pseudotyped virus, Wildtype Strain; for IC50: read-out: IC50 against H5N1 pseudovirus.

In data set [8] the test system is VSVG pseudovirus. As to the kind of experiment: microbe, parasite or virus in culture. In kind it is cell-based, vesicular stomatitis virus (VSVG). To be noted: for inhibition at 1.56 µM / inhibition at 3.13 µM / inhibition at 6.25 µM / inhibition at 12.5 µM / inhibition at 25 µM / inhibition at 50 µM / inhibition at 100 µM / inhibition at 200 µM: Pseudovirus, MDCK, 48 h, read-out: inhibitory rates, VSVG pseudovirus group.

For data set [9], the system named is H5N1 virus HA1 (hemagglutination of chicken erythrocytes).
For data set [10], the target named is HA protein (Influenza A virus, UniProt Q9Q0U6). Briefly: biochemical. In kind it is binding, H5N1 virus.
Where [11] appears, read: Influenza A virus, H5N1, MDCK, read-out: Inhibition rates to H5N1 virus (%).
[12] abbreviates: H5N1, read-out: inhibition rate of viral plaques forming.

H5N1 virus neuraminidase, sequence (Q9Q0U7 whole entry, looked up): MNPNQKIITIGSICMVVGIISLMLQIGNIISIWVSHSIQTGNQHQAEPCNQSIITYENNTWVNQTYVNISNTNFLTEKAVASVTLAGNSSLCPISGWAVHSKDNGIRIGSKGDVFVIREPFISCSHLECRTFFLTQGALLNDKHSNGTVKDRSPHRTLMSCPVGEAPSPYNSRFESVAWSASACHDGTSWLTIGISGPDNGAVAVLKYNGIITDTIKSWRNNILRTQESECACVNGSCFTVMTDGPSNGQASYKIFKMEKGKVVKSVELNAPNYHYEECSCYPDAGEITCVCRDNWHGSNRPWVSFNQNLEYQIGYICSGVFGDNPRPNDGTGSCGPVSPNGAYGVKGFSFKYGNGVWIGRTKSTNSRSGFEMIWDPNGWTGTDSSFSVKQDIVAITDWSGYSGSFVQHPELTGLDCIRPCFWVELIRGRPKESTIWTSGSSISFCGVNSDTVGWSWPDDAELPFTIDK
HA protein, sequence (Q9Q0U6 17-568 limits assumed): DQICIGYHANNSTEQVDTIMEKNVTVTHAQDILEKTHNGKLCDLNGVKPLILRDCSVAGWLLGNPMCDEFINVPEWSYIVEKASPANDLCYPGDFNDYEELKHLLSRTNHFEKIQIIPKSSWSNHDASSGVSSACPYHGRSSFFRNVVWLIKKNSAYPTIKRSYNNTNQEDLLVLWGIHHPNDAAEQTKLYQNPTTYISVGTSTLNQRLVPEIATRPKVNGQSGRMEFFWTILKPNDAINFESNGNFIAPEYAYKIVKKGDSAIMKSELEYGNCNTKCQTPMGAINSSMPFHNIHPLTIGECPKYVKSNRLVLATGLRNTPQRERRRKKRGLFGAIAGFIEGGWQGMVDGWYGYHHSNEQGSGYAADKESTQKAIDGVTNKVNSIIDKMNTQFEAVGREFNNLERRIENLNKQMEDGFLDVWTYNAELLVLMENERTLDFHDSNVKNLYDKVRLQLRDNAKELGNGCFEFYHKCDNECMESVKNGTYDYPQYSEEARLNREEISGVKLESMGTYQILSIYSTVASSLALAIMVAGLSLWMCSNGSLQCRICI

Consider `CCC(CC)[C@H](NC(C)=O)[C@@H]1[C@H](O)[C@@H](C(=O)O)C[C@H]1N=C(N)N` [peramivir, reference compound], for which the half-maximal inhibitory concentration (IC50) in data set [1] (read-out: IC50 against H5N1 viral NA) came out at 0.000668 µM.
For `CC1CCC2(OC1)OC1CC3C4CC(O)C5CC(OC6OC(CO)C(OC7OC(C)C(O)C(O)C7O)C(O)C6OC6OC(C)C(O)C(O)C6O)CCC5(C)C4CCC3(C)C1C2C` (stereo not drawn) [chlorogenin 3-O-β-chacotrioside], in data set [2], the concentration for half-maximal inhibition (IC50) was 7.22 to 9.25 µM.
For the molecule `CCOC(=O)C1=C[C@@H](OC(CC)CC)[C@H](NC(C)=O)[C@@H](N)C1` [Osetamivir, reference compound], in [1], inhibition was half-maximal at 0.00887 µM (IC50).
The molecule `NC(=O)c1ncn([C@@H]2O[C@H](CO)[C@@H](O)[C@H]2O)n1` [ribavirin, reference compound] came in with an IC50 in data set [3] (Influenza A virus, H5N1, MDCK) of 37.2 ± 1.6 µM. The molecule also showed a CC50 in [4] of 132 ± 0.87 µM.
As for `CC1CCC2(OC1)OC1CC3C4CC(=O)C5CC(OC6OC(CO)C(OC7OC(C)C(O)C(O)C7O)C(O)C6OC6OC(C)C(O)C(O)C6O)CCC5(C)C4CCC3(C)C1C2C` (stereo not drawn) [UA-Nu-ph-5], the “Inhibition rates to H5N1 virus (%)” value in data set [3] (0.39 µM) was 0%; in data set [3] (0.78 µM), 10.75±2.01%; in data set [3] (1.56 µM), 10.78±3.11%; in data set [3] (3.13 µM), 16.51±6.34%; in data set [3] (50 µM) it was 65.30±4.73%. In data set [3] (Influenza A virus, H5N1, MDCK), this molecule came in with a half-inhibitory concentration (IC50) of 15.6 ± 2.4 µM. The inhibition at 6.25 µM in data set [3] (setting [11]) worked out at 35 ± 10.8%. The inhibition at 12.5 µM in data set [3] (setting [11]) came out at 47.1 ± 1.63%. The inhibition at 25 µM in data set [3] (setting [11]) worked out at 61.7 ± 5.4%. Moreover, the inhibition at 100 µM in data set [3] (setting [11]) was found to be 79.1 ± 3.27%. Besides, the CC50 in data set [5] is 127 ± 1.7 µM.
As to `CC1CCC2(OC1)OC1CC3C4CC(=O)C5CC(OC6OC(CO)C(OC7OC(C)C(O)C(O)C7O)C(O)C6OC6OC(C)C(O)C(O)C6O)CCC5(C)C4CCC3(C)C1C2C` (stereo not drawn) [XC-27-1], the half-maximal inhibitory concentration (IC50) in [3] turned out to be 16.8 ± 1.45 µM. Besides, in data set [3] (0.39 µM), the “Inhibition rates to H5N1 virus (%)” value was 27.54±1.11%. Besides, the “Inhibition rates to H5N1 virus (%)” value in data set [3] (0.78 µM) is listed as 31.73±6.04%. In addition, in data set [3] (1.56 µM), the “Inhibition rates to H5N1 virus (%)” value is 37.01±4.82%. Moreover, the “Inhibition rates to H5N1 virus (%)” value in data set [3] (3.13 µM) is 40.85±8.91%. In data set [3] (6.25 µM), the “Inhibition rates to H5N1 virus (%)” value came to 46.13±10.59%. Further, the “Inhibition rates to H5N1 virus (%)” value in data set [3] (12.5 µM) was determined as 55.30±3.74%. Besides, the “Inhibition rates to H5N1 virus (%)” value in data set [3] (25 µM) came out at 75.06±10.43%. In addition, the “Inhibition rates to H5N1 virus (%)” value in data set [3] (50 µM) is 85.71±5.06%. Further, in data set [6] (setting [12]), the inhibition at 40 µM worked out at 95%. In addition, in data set [7], the inhibition at 1.56 µM was found to be 33.6 ± 5.25%, the inhibition at 3.13 µM is 38 ± 3.24%, the inhibition at 6.25 µM came to 40.7 ± 10.9% and the inhibition at 12.5 µM is 49 ± 11.7%. Also, in data set [7], the inhibition at 25 µM is 60.7 ± 3.73%, the inhibition at 50 µM amounted to 64.8 ± 2.96%, the inhibition at 100 µM was determined as 78 ± 2.16% and the inhibition at 200 µM amounted to 95.3 ± 3.6%. Also, the 50% inhibitory concentration (IC50) in data set [7] came to 12.8 ± 7.01 µM. Moreover, in data set [8], the “inhibitory effects on the VSVG pseudovirus” value was “no inhibitory effects”, the inhibition at 1.56 µM is -0.74 ± 6.43%, the inhibition at 3.13 µM is -1.52 ± 4.89% and the inhibition at 6.25 µM is -4.3 ± 3.47%. For the same molecule, in data set [8], the inhibition at 12.5 µM was 3.54 ± 4.16%, the inhibition at 25 µM was found to be 0.83 ± 6.72%, the inhibition at 50 µM is 3.97 ± 5.2% and the inhibition at 100 µM came out at 4.8 ± 4.97%. Also, in [8], the inhibition at 200 µM was 4.75 ± 3.18%. Besides, in [1], the “inhibition activity on NA (in words)” value is reported as “very low inhibition activity”, the inhibition at 6.25 µM was found to be 6.57 ± 6.89%, the inhibition at 12.5 µM is 0.18 ± 8.13% and the inhibition at 25 µM was -6.95 ± 12.7%. Further, in data set [1], the inhibition at 50 µM turned out to be 5.37 ± 14.4%, the inhibition at 100 µM came out at 6.45 ± 14.9%, the inhibition at 200 µM stood at 7.07 ± 9.83% and the inhibition at 400 µM was 24.5 ± 8.38%. The “inhibitory effects to the hemagglutination reaction induced by the virus HA1” value in data set [9] was “had not produced inhibitory effects”. Also, the Kd in data set [10] is 257 µM. Further, in data set [5], the CC50 turned out to be 1247 ± 1.16 µM and the “in vitro cytotoxicity decreased (fold) than that of XC-27-2” value worked out at 16 fold.
`CC1CCC2(OC1)OC1CC3C4CC(O)C5CC(OC6OC(CO)C(OC7OC(C)C(O)C(O)C7O)C(O)C6OC6OC(C)C(O)C(O)C6O)CCC5(C)C4CCC3(C)C1C2C` (stereo not drawn) [XC-27-2] gave an IC50 in [3] (Influenza A virus, H5N1, MDCK) of 12.5 ± 2.27 µM. Also, in data set [3] (setting [11]), the inhibition at 0.39 µM is 31.9 ± 4.33%, the inhibition at 0.78 µM turned out to be 38.6 ± 0.68%, the inhibition at 1.56 µM was 41.5 ± 2.01% and the inhibition at 3.13 µM stood at 47.1 ± 5.94%. In data set [3] (setting [11]), the inhibition at 6.25 µM came out at 55.6 ± 3.97%, the inhibition at 12.5 µM was found to be 62.2 ± 0.99%, the inhibition at 25 µM amounted to 71 ± 4.31% and the inhibition at 50 µM amounted to 96.8 ± 1.51%. The inhibition at 40 µM in [6] (H5N1, read-out: inhibition percentage of H5N1 viral plaques forming amounts) is 91%. Also, the inhibition at 40 µM in data set [6] (setting [12]) stood at 96%. In [7], the inhibition at 1.56 µM was 26.8 ± 9.96%, the inhibition at 3.13 µM was found to be 30.1 ± 12.2%, the inhibition at 6.25 µM came out at 35.8 ± 12.1% and the inhibition at 12.5 µM was found to be 46.3 ± 6.37%. Also, in data set [7], the inhibition at 25 µM is 47.4 ± 13.2%, the inhibition at 50 µM is 64.9 ± 12.5%, the inhibition at 100 µM stood at 90.5 ± 2.35% and the inhibition at 200 µM was 95.98 ± 0.68%. For the same molecule, the IC50 in data set [7] was determined as 18.5 ± 1.82 µM. In [8], the “inhibitory effects on the VSVG pseudovirus” value is on record as “no inhibitory effects”, the inhibition at 1.56 µM amounted to 2.62 ± 4.57%, the inhibition at 3.13 µM is -3.39 ± 4.64% and the inhibition at 6.25 µM was 0.17 ± 5.78%. Further, in data set [8], the inhibition at 12.5 µM was 1.54 ± 13.9%, the inhibition at 25 µM stood at 0.46 ± 0.94%, the inhibition at 50 µM was 0.34 ± 6.12% and the inhibition at 100 µM is 6.84 ± 5.83%. In addition, the inhibition at 200 µM in data set [8] was 6.52 ± 2.16%. In [1], the “inhibition activity on NA (in words)” value is “very low inhibition activity”, the inhibition at 6.25 µM worked out at 1.09 ± 2.99%, the inhibition at 12.5 µM is 5.75 ± 4.41% and the inhibition at 25 µM was 2.89 ± 8.39%. Moreover, in [1], the inhibition at 50 µM is 10.5 ± 16.5%, the inhibition at 100 µM was found to be 13.3 ± 4.06%, the inhibition at 200 µM stood at 15.6 ± 2.97% and the inhibition at 400 µM was 32 ± 10%. Also, the “inhibitory effects to the hemagglutination reaction induced by the virus HA1” value in data set [9] is “had not produced inhibitory effects”. In data set [10], this molecule showed a Kd of 367 µM. In addition, the CC50 in data set [4] was determined as 73.8 ± 0.79 µM.

As usually defined, the IC50 is the midpoint of a concentration-inhibition curve. The Kd is the constant that tells how readily two partners part at equilibrium. Higher therefore signals lower affinity.

The values above are taken from paper PMC7150989 (Viruses, 2020).
